Results from patent US10597388B2, “Pyridazinone herbicides” (FMC CORPORATION, priority 2014, dated 2020).

Key:
Assay in all cases: Test D controlled growth environment herbicide test, pre- and postemergence
Type in all cases: in vivo
[1] = system: chickweed (common chickweed, Stellaria media)
Outline: (§1)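 Rating is visual, 0–100 scale (100 = complete control), made against untreated plants 14–21 d after treatment in controlled growth conditions. Postemergence sprays went onto 1- to 4-leaf plants in peat medium; preemergence sprays onto silt loam after sowing; formulation included a surfactant.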

[2] = system: field violet (Viola arvensis)
Outline: as §1

[3] = system: pigweed (Amaranthus retroflexus)
Outline: as §1

[4] = system: galium (catchweed bedstraw, Galium aparine)
Outline: as §1

[5] = system: chamomile (scentless chamomile, Matricaria inodora)
Outline: as §1

[6] = system: barley, winter (winter barley, Hordeum vulgare)
Outline: as §1

[7] = system: foxtail, green (green foxtail, Setaria viridis)
Outline: as §1

[8] = system: bluegrass (annual bluegrass, Poa annua)
Outline: as §1

kochia (Kochia scoparia) = system: kochia (Kochia scoparia)
Outline: as §1

[9] = system: bromegrass, downy (downy bromegrass, Bromus tectorum)
Outline: as §1

[10] = system: blackgrass (Alopecurus myosuroides)
Outline: as §1

[11] = system: lambsquarters (Chenopodium album)
Outline: as §1

[12] = system: wheat, winter (winter wheat, Triticum aestivum)
Outline: as §1

[13] = Postemergence, 31 g ai/ha, scale 0 to 100 (0 no effect, 100 complete control)
[14] = Postemergence, 125 g ai/ha, visual rating on scale 0 (no effect) to 100 (complete control), 14 to 21 d
[15] = Postemergence, 250 g ai/ha, scale 0 to 100 (0 no effect, 100 complete control)
[16] = Preemergence, 62 g ai/ha, scale 0 to 100 (0 no effect, 100 complete control)
[17] = Preemergence, 125 g ai/ha, scale 0 to 100 (0 no effect, 100 complete control)
[18] = Preemergence, 250 g ai/ha, scale 0 to 100, 0 no effect, 100 complete control
[19] = postemergence, 62 g ai/ha, scale 0 to 100, 0 no effect, 100 complete control

## Cn1nc(Br)c(O)c(-c2cccc3ccccc23)c1=O [Compound 20]
[1]; [13]
  Chickweed plant response rating: 90
[1]; [14]
  Plant response rating, Chickweed: 100
[1]; [15]
  Plant response rating, Chickweed: 100
[1]; Preemergence, 31 g ai/ha
  Plant response rating (scale of 0 to 100), Chickweed: 85
[1]; [16]
  Plant response rating, Chickweed: 95
[1]; [17]
  Plant response rating, Chickweed: 95
[1]; [18]
  Plant response rating, Chickweed: 95
[1]; [19]
  Plant response rating, Chickweed: 100
[2]; [13]
  Field Violet plant response rating: 5
[2]; [14]
  Plant response rating, Field Violet: 25
[2]; [15]
  Plant response rating, Field Violet: 45
[2]; Preemergence, 31 g ai/ha
  Plant response rating (scale of 0 to 100), Field Violet: 0
[2]; [16]
  Plant response rating, Field Violet: 15
[2]; [17]
  Plant response rating, Field Violet: 25
[2]; [18]
  Plant response rating, Field Violet: 75
[2]; [19]
  Plant response rating, Field Violet: 15
[3]; [13]
  Pigweed plant response rating: 80
[3]; [14]
  Plant response rating, Pigweed: 100
[3]; [15]
  Plant response rating, Pigweed: 100
[3]; Preemergence, 31 g ai/ha
  Plant response rating (scale of 0 to 100), Pigweed: 30
[3]; [16]
  Plant response rating, Pigweed: 40
[3]; [17]
  Plant response rating, Pigweed: 100
[3]; [18]
  Plant response rating, Pigweed: 100
[3]; [19]
  Plant response rating, Pigweed: 100
[4]; [13]
  Galium plant response rating: 70
[4]; [14]
  Plant response rating, Galium: 100
[4]; [15]
  Plant response rating, Galium: 100
[4]; Preemergence, 31 g ai/ha
  Plant response rating (scale of 0 to 100), Galium: 10
[4]; [16]
  Plant response rating, Galium: 30
[4]; [17]
  Plant response rating, Galium: 75
[4]; [18]
  Plant response rating, Galium: 85
[4]; [19]
  Plant response rating, Galium: 75
[5]; [13]
  Chamomile plant response rating: 70
[5]; [14]
  Plant response rating, Chamomile: 100
[5]; [15]
  Plant response rating, Chamomile: 100
[5]; [19]
  Plant response rating, Chamomile: 95
[6]; [13]
  Plant response rating, Barley, Winter: 0
[6]; [14]
  Plant response rating, Barley, Winter: 0
[6]; [15]
  Plant response rating, Barley, Winter: 0
[6]; Preemergence, 31 g ai/ha
  Plant response rating (scale of 0 to 100), Barley, Winter: 0
[6]; [16]
  Plant response rating, Barley, Winter: 0
[6]; [17]
  Plant response rating, Barley, Winter: 0
[6]; [18]
  Barley, Winter plant response rating: 0
[6]; [19]
  Plant response rating, Barley, Winter: 0
[7]; [13]
  Foxtail, Green plant response rating: 15
[7]; [14]
  Plant response rating, Foxtail, Green: 40
[7]; [15]
  Plant response rating, Foxtail, Green: 70
[7]; Preemergence, 31 g ai/ha
  Plant response rating (scale of 0 to 100), Foxtail, Green: 25
[7]; [16]
  Plant response rating, Foxtail, Green: 60
[7]; [17]
  Plant response rating, Foxtail, Green: 75
[7]; [18]
  Plant response rating, Foxtail, Green: 85
[7]; [19]
  Plant response rating, Foxtail, Green: 35
[8]; [13]
  Bluegrass plant response rating: 10
[8]; [14]
  Plant response rating, Bluegrass: 30
[8]; [15]
  Plant response rating, Bluegrass: 40
[8]; Preemergence, 31 g ai/ha
  Plant response rating (scale of 0 to 100), Bluegrass: 10
[8]; [16]
  Plant response rating, Bluegrass: 15
[8]; [17]
  Plant response rating, Bluegrass: 25
[8]; [18]
  Bluegrass plant response rating: 35
[8]; [19]
  Plant response rating, Bluegrass: 25
Kochia (Kochia scoparia); [13]
  Kochia plant response rating: 35
Kochia (Kochia scoparia); [14]
  Plant response rating, Kochia: 85
Kochia (Kochia scoparia); [15]
  Plant response rating, Kochia: 100
Kochia (Kochia scoparia); Preemergence, 31 g ai/ha
  Plant response rating (scale of 0 to 100), Kochia: 0
Kochia (Kochia scoparia); [16]
  Plant response rating, Kochia: 25
Kochia (Kochia scoparia); [17]
  Plant response rating, Kochia: 70
Kochia (Kochia scoparia); [18]
  Plant response rating, Kochia: 90
Kochia (Kochia scoparia); [19]
  Plant response rating, Kochia: 65
[9]; [13]
  Bromegrass, Downy plant response rating: 0
[9]; [14]
  Plant response rating, Bromegrass, Downy: 10
[9]; [15]
  Plant response rating, Bromegrass, Downy: 15
[9]; Preemergence, 31 g ai/ha
  Plant response rating (scale of 0 to 100), Bromegrass, Downy: 15
[9]; [16]
  Plant response rating, Bromegrass, Downy: 35
[9]; [17]
  Plant response rating, Bromegrass, Downy: 40
[9]; [18]
  Plant response rating, Bromegrass, Downy: 45
[9]; [19]
  Plant response rating, Bromegrass, Downy: 10
[10]; [13]
  Blackgrass plant response rating: 15
[10]; [14]
  Plant response rating, Blackgrass: 50
[10]; [15]
  Plant response rating, Blackgrass: 60
[10]; Preemergence, 31 g ai/ha
  Plant response rating (scale of 0 to 100), Blackgrass: 20
[10]; [16]
  Plant response rating, Blackgrass: 40
[10]; [17]
  Plant response rating, Blackgrass: 60
[10]; [18]
  Blackgrass plant response rating: 75
[10]; [19]
  Plant response rating, Blackgrass: 40
[11]; [13]
  Lambsquarters plant response rating: 85
[11]; [14]
  Plant response rating, Lambsquarters: 90
[11]; [15]
  Plant response rating, Lambsquarters: 95
[11]; Preemergence, 31 g ai/ha
  Plant response rating (scale of 0 to 100), Lambsquarters: 75
[11]; [16]
  Plant response rating, Lambsquarters: 90
[11]; [17]
  Plant response rating, Lambsquarters: 100
[11]; [18]
  Plant response rating, Lambsquarters: 100
[11]; [19]
  Plant response rating, Lambsquarters: 85
[12]; [13]
  Wheat, Winter plant response rating: 0
[12]; [14]
  Plant response rating, Wheat, Winter: 15
[12]; [15]
  Plant response rating, Wheat, Winter: 25
[12]; Preemergence, 31 g ai/ha
  Plant response rating (scale of 0 to 100), Wheat, Winter: 0
[12]; [16]
  Plant response rating, Wheat, Winter: 0
[12]; [17]
  Plant response rating, Wheat, Winter: 15
[12]; [18]
  Plant response rating, Wheat, Winter: 25
[12]; [19]
  Plant response rating, Wheat, Winter: 10
